Reference: patent US8846675B2, “N-linked heterocyclic receptor agonists for the treatment of diabetes and metabolic disorders” (Cymabay Therapeutics, Inc., priority 2007, dated 2014)

Target: T1, IC-GPCR2 (Homo sapiens, UniProt Q8TDV5)
T1 construct: expressed in transfected cells
T1 sequence (Q8TDV5 1-335 S309L): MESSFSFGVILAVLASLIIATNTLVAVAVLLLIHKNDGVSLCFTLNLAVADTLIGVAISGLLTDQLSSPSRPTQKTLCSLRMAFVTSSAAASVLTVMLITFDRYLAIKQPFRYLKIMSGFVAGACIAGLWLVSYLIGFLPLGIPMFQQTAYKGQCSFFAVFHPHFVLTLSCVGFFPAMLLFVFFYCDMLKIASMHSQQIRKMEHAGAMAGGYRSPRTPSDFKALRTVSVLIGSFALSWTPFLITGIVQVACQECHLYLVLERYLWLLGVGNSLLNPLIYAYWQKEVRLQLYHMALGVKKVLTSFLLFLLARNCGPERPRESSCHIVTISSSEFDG
Experiment: Stimulation of cAMP in CHO cell line stably expressing IC-GPCR2 (HTRF cAMP dynamic kit)
Assay type: cell-based
Conditions: 3 μM compound; relative to maximal activity of 5-Ethyl-2-{4-[4-(4-tetrazol-1-yl-phenoxymethyl)-thiazol-2-yl]-piperidin-1-yl}-pyrimidine (=100%); IC-GPCR2 stably expressing CHO cells, 30 minutes
Description: This assay was developed using a stable cell line expressing IC-GPCR-2, generated as follows. IC-GPCR2 (Seq. ID No. 1) was cloned into Gateway pDEST 40vector (Invitrogen), using the Gateway cloning system (invitrogen) according to the manufacturers instructions. A stable cell line was generated by transfecting a 10 cm plate of CHO cells (source) with 8 ug of this construct using Transit-CHO transfection kit (Mirus). CHO cells were plated the day prior to transfection at a density of 3,000,000 cells/plate. Clones were selected using the antibiotic G418 at 500 ug/ml. 23 clones were picked and assayed for the expression of the receptor by measuring changes in intracellular cAMP levels in response to an IC-GPCR2 agonist (Arena 51).
To measure cAMP activity in response to IC-GPCR2 agonist, the clones were plated in 96 well plates at 17500 cells per well. On the day after plating, cells were incubated with the IC-CPCR2 agonist at […] for 30 minutes in Ham's F12 Media (Gibco) with 0.04% DMSO. cAMP was measured using the cAMP dynamic kit from C is Bio (Bedford, Mass.) according to the manufacturers instructions. Briefly, cells were lysed, and cAMP levels determined by competitive immunoassay using D2 labeled cAMP, and europium cryptate tagged anti cAMP antibody. When in close proximity, the D2 and europium cryptate undergo fluorescence resonance energy transfer (FRET), which is measured as a fluorescence ratio (665 nm/620 nm). Unlabelled cAMP in the cell lysatc competed with the D2 labeled cAMP for the europium crypate labeled antibody. The resulting decrease in FRET signal corresponded to intracellular cAMP levels. Fluorescence was read on a BMG Labtech PHERAstar, software version 1.50.
The clone with the greatest response to IC-GPCR2 agonist was selected for the screening assay.
Compounds were dissolved in 100% DMSO to a concentration of […] to provide stock solutions. To determine activity against IC-GPCR2, compounds were incubated with IC-GPCR2 stably expressing cells (described above), at 6-8 concentrations ranging from 0.00003 to 10 micromolar, in 96 well plates, in 50 ul of Hams F12 media for 30 minutes. Cells were plated at 17500 cells per well 1 day before running the assay. All compounds were also screened against the parental CHO cells. cAMP was measured using the cAMP dynamic kit from Cis Bio (Bedford, Mass.), according to the manufacturer's instructions. Briefly, cells were lysed and cAMP levels determined by competitive immunoassay using D2 labeled cAMP, and europium cryptate tagged anti cAMP antibody. When in close proximity, the D2 and europium cryptate undergo fluorescence resonance energy transfer (FRET), which is measured as a fluorescence ratio (665 nm/620 nm). Unlabelled cAMP in the cell lysate competed with the D2 labeled cAMP for the europium crypate labeled antibody. The resulting decrease in FRET signal corresponded to intracellular cAMP levels
To determine percent activity for a tested compound, the FRET signal value obtained at a particular concentration are compared to the Maximal FRET signal value obtained for 5-Ethyl-2-{4-[4-(4-tetrazol-1-yl-phenoxymethyl)-thiazol-2-yl]-piperidin-1-yl}-pyrimidine. The maximal activity of 5-Ethyl-2-{4-[4-(4-tetrazol-1-yl-phenoxymethyl)-thiazol-2-yl]-piperidin-1-yl}-pyrimidine is designated as 100% activity. Typically, the concentration of 5-Ethyl-2-{4-[4-(4-tetrazol-1-yl-phenoxymethyl)-thiazol-2-yl]-piperidin-1-yl}-pyrimidine in the assay was approximately 0.1 μM. The synthesis of 5-Ethyl-2-{4-[4-(4-tetrazol-1-yl-phenoxymethyl)-thiazol-2-yl]-piperidin-1-yl}-pyrimidine is disclosed in co-owned pending U.S. patent application Ser. No. 11/964,461, herein incorporated by reference. Activities of compounds that were tested are shown in Table 1 below and are expressed as % activity at 3 μM compound compared to the maximal activity of 5-Ethyl-2-{4-[4-(4-tetrazol-1-yl-phenoxymethyl)-thiazol-2-yl]-piperidin-1-yl}-pyrimidine at 3 μM.

Compound | % activity at 3 μM
Fc1cc(-n2cnnn2)ccc1OCc1cnn([C@H]2CCN(c3ncc(Cl)cn3)C[C@@H]2F)n1 (racemic) [Example 33, 5-Chloro-2-((trans)-3-fluoro-4-(4-((2-fluoro-4-(1H-tetrazol-1-yl)phenoxy)methyl)-2H-1,2,3-triazol-2-yl)piperidin-1-yl)pyrimidine] | 88.32%
Fc1cc(-n2cnnn2)ccc1OCc1cnn([C@H]2CCN(c3ncc(C(F)(F)F)cn3)C[C@@H]2F)n1 (racemic) [Example 34, 2-((trans)-3-Fluoro-4-(4-((2-fluoro-4-(1H-tetrazol-1-yl)phenoxy)methyl)-2H-1,2,3-triazol-2-yl)piperidin-1-yl)-5-(trifluoromethyl)pyrimidine] | 87.61%
CC(C)(C)OC(=O)N1CC[C@@H](n2ncc(COc3ccc(-n4cnnn4)cc3F)n2)[C@H](F)C1 (relative stereo) [Example 49, (trans)-tert-Butyl 3-fluoro-4-(4-((2-fluoro-4-(1H-tetrazol-1-yl)phenoxy)methyl)-2H-1,2,3-triazol-2-yl)piperidine-1-carboxylate] | 78.48%
COC(=O)[C@H]1C[C@H](n2ncc(COc3ccc(-n4cnnn4)nc3)n2)CCN1C(=O)OC(C)(C)C (relative stereo) [Example 59] | 33.25%
CC(C)(C)OC(=O)N1CCC(n2cnc(COc3ccc(S(C)(=O)=O)cc3F)n2)CC1 [Example 1, 4-[3-(2-Fluoro-4-methanesulfonyl-phenoxymethyl)-[1,2,4]triazol-1-yl]-piperidine-1-carboxylic acid tert-butyl ester] | 64.46%
CC(C)(C)OC(=O)N1CCC(n2ncc(COc3ccc(S(C)(=O)=O)cc3F)n2)CC1 [Example 4, 4-[4-(2-Fluoro-4-methanesulfonyl-phenoxymethyl)-[1,2,3]triazol-2-yl]-piperidine-1-carboxylic acid tert-butyl ester] | 79.18%
CC(C)(C)OC(=O)N1CCC(n2nnc(COc3ccc(S(C)(=O)=O)cc3F)n2)CC1 [Example 5, 4-[5-(2-Fluoro-4-methanesulfonyl-phenoxymethyl)-tetrazol-2-yl]-piperidine-1-carboxylic acid tert-butyl ester] | 75.78%
CC(C)(C)OC(=O)N1CCC(n2ccc(COc3ccc(-n4cnnn4)cc3F)n2)CC1 [Example 6, 4-[3-(2-Fluoro-4-tetrazol-1-yl-phenoxymethyl)-pyrazol-1-yl]-piperidine-1-carboxylic acid tert-butyl ester] | 79.51%
CS(=O)(=O)c1ccc(OCc2cnn(C3CCN(c4ncc(Cl)cn4)CC3)n2)c(F)c1 [Example 13, 5-Chloro-2-{4-[4-(2-fluoro-4-methanesulfonyl-phenoxymethyl)-[1,2,3]triazol-2-yl]-piperidin-1-yl}-pyrimidine] | 61.30%
CS(=O)(=O)c1ccc(OCc2cnn(C3CCN(c4ncc(C(F)(F)F)cn4)CC3)n2)c(F)c1 [Example 14, 2-{4-[4-(2-Fluoro-4-methanesulfonyl-phenoxymethyl)-[1,2,3]triazol-2-yl]-piperidin-1-yl}-5-trifluoromethyl-pyrimidine] | 74.80%
CS(=O)(=O)c1ccc(OCc2nnn(C3CCN(c4ncc(Cl)cn4)CC3)n2)c(F)c1 [Example 17, 5-Chloro-2-{4-[5-(2-fluoro-4-methanesulfonyl-phenoxymethyl)-tetrazol-2-yl]-piperidin-1-yl}-pyrimidine] | 68.23%
CC(C)(C)OC(=O)N1CCC(n2cc(COc3ccc(S(C)(=O)=O)cc3)nn2)CC1 [Example 21, 4-[4-(4-Methanesulfonyl-phenoxymethyl)[1,2,3]triazol-1-yl]-piperidine-1-carboxylic acid tert-butyl ester] | 63.66%

The remaining lines, values ahead:

% activity at 3 μM | Compound
85.32% | CCc1cnc(N2CC[C@H](n3ncc(COc4ccc(-n5cnnn5)cc4F)n3)[C@@H](F)C2)nc1 (racemic) [Example 38, 5-Ethyl-2-((trans)-3-fluoro-4-(4-((2-fluoro-4-(1H-tetrazol-1-yl)phenoxy)methyl)-2H-1,2,3-triazol-2-yl)piperidin-1-yl)pyrimidine]
79.02% | CC(C)(C)OC(=O)N1CCC(n2ncc(COc3ccc(-n4cnnn4)cc3)n2)CC1 [Example 3, 4-[4-(4-Tetrazol-1-yl-phenoxymethyl)-[1,2,3]triazol-2-yl]-piperidine-1-carboxylic acid tert-butyl ester]
78.16% | CC(C)(C)OC(=O)N1CCC(n2cc(COc3ccc(-n4cnnn4)cc3F)cn2)CC1 [Example 7, 4-[4-(2-Fluoro-4-tetrazol-1-yl-phenoxymethyl)-pyrazol-1-yl]-piperidine-1-carboxylic acid tert-butyl ester]
77.16% | CC(C)(C)OC(=O)N1CCC(n2cc(COc3ccc(-n4cnnn4)cc3)cn2)CC1 [Example 8, 4-[4-(4-Tetrazol-1-yl-phenoxymethyl)-pyrazol-1-yl]-piperidine-1-carboxylic acid tert-butyl ester]
65.75% | CCc1cnc(N2CCC(n3cnc(COc4ccc(S(C)(=O)=O)cc4F)n3)CC2)nc1 [Example 9, 5-Ethyl-2-{4-[3-(2-fluoro-4-methanesulfonyl-phenoxymethyl)-[1,2,4]triazol-1-yl]-piperidin-1-yl}-pyrimidine]
71.04% | CCc1cnc(N2CCC(n3ncc(COc4ccc(S(C)(=O)=O)cc4F)n3)CC2)nc1 [Example 10, 5-Ethyl-2-{4-[4-(2-fluoro-4-methanesulfonyl-phenoxymethyl)-[1,2,3]triazol-2-yl]-piperidin-1-yl}-pyrimidine]
75.63% | Fc1cc(-n2cnnn2)ccc1OCc1cnn(C2CCN(c3ncc(C(F)(F)F)cn3)CC2)n1 [Example 15, 2-{4-[4-(2-Fluoro-4-tetrazol-1-yl-phenoxymethyl)-[1,2,3]triazol-2-yl]-piperidin-1-yl}-5-trifluoromethyl-pyrimidine]
70.31% | Fc1cc(-n2cnnn2)ccc1OCc1cnn(C2CCN(c3ncc(Cl)cn3)CC2)n1 [Example 16, 5-Chloro-2-{4-[4-(2-fluoro-4-tetrazol-1-yl-phenoxymethyl)-[1,2,3]triazol-2-yl]-piperidin-1-yl}-pyrimidine]
77.67% | CCc1cnc(N2CCC(n3cc(COc4ccc(-n5cnnn5)cc4)cn3)CC2)nc1 [Example 18, 2-(4-(4-((4-(1H-tetrazol-1-yl)phenoxy)methyl)-1H-pyrazol-1-yl)piperidin-1-yl)-5-ethylpyrimidine]
80.10% | CCc1cnc(N2CCC(n3cc(COc4ccc(-n5cnnn5)cc4F)cn3)CC2)nc1 [Example 19, 5-Ethyl-2-(4-(4-((2-fluoro-4-(1H-tetrazol-1-yl)phenoxy)methyl)-1H-pyrazol-1-yl)piperidin-1-yl)pyrimidine]
